Assay results published in patent US20020168685A1, “Covalent chemical inducers of protein dimerization and their uses in high throughput binding screens” (priority 2001, published 2002).

Assays:
[1] = system: S. cerevisiae strain FY250
Excerpt: The plasmids encoding the LexA- and B42-fusion proteins were introduced in all necessary combinations into S. cerevisiae strain FY250 containing a plasmid encoding the lacZ reporter plasmid.
All of these experiments have been done as plate assays. The toxicity of the ligand and receptor is judged simply by seeing if either induction of the receptor fusions or application of the ligand to the plate impairs cell growth.

GR fusion proteins = conditions: cited from earlier work

Structure (SMILES): C[C@@H]1C[C@H]2[C@@H]3CCC4=CC(=O)C=C[C@]4(C)[C@@]3(F)[C@@H](O)C[C@]2(C)[C@@]1(O)C(=O)CO [DEX, Dexamethasone]
- toxicity (impaired cell growth) [1]: neither DEX nor GR are toxic
- cell permeability (GR fusion proteins): cell permeable
- modification or breakdown in the cell (GR fusion proteins): not modified or broken down in the cell
